As to `CCCCc1ncc(/C=C(\Cc2cc3c(cc2OC)OCO3)C(=O)O)n1-c1ccc(OC)cc1OCc1nnnn1CC` [Example 23, (E)-3-[2-Butyl-1-[2-(1-ethyl-1H-tetrazol-5-yl)methoxy-4-methoxyphenyl]-1H-imidazol-5-yl]-2-[(2-methoxy-4,5-methylenedioxyphenyl)methyl]-2-propenoic Acid], the melting point (in general, the temperature, or range, at which the solid turns liquid) was 185 to 190 °C. Compound `CCCCc1ncc(/C=C(\Cc2cc3c(cc2OC)OCO3)C(=O)O)n1-c1ccc(OC)cc1OCc1nnn(CCC)n1` [Example 24, (E)-3-[2-Butyl-1-[2-(2-propyl-2H-tetrazol-5-yl)methoxy-4-methoxyphenyl]-1H-imidazol-5-yl]-2-[(2-methoxy-4,5-methylenedioxyphenyl)methyl]-2-propenoic Acid] came in with a melting point of 110 to 118 °C.

(Values after patent US6620826B2, “Endothelin receptor antagonists” (SmithKline Beecham Corporation, priority 1994, dated 2003).)
